These are literature values, as cited in US7393954B2 (Reliable Biopharmaceutical Corporation, priority 2002, dated 2008).

For data set [1], the system named is chronic lymphocytic leukemia. The conditions noted are these: result in words.
A further data set deals with hairy cell leukemia. The conditions noted are these: result in words.

As to `OC[C@H]1O[C@@H](n2cnc3c2N=CNC[C@H]3O)C[C@@H]1O` [Pentostatin], the “efficacy against chronic lymphocytic leukemia” value in data set [1] was “effective”. In addition, in the data set with hairy cell leukemia (interferon-refractory, approved agent), the “efficacy in treatment of interferon-refractory hairy cell leukemia” value is on record as “highly effective”. Further, the “efficacy against hairy cell leukemia” value in the data set with hairy cell leukemia is “effective”.
